Test results reported in US12485080B2, “Cosmetic compositions” (Mary Kay Inc., priority 2011, dated 2025).

What was measured:
elastin fibers = assay: Immunofluorescence study of elastin fibers; format: cell-based, human; conditions: immunofluorescence studies
laminin = assay: Secretion of laminin; format: cell-based; conditions: compared to untreated controls
fibronectin = assay: Secretion of fibronectin; format: cell-based; conditions: compared to untreated controls
hyaluronic acid = assay: Hyaluronic acid production/secretion in cultured human dermal fibroblasts; format: cell-based; conditions: compared to an untreated control
Method: In this study, tetradecyl aminobutyroylvalylamino butyric urea trifluoroacetate (SYN-HYCAN™ from Pentapharm/DSM) was replaced with Alpinia galanga leaf extract (HYALUFIX™ GL from BASF). Therefore, the combination of tripeptide-1 (KOLLAREN® from Unipex/Lucas Meyer), Centella asiatica stem cells (CENTELLA ASIATIC STEMS G™ from Ricerche Biotecnologiche), and Alpinia galanga leaf extract (HYALUFIX™ GL from BASF) was tested on skin at various levels in various dermatologically acceptable vehicles. The following includes data concerning these tests. Further, an in vitro assay was performed on Alpinia galanga leaf extract using cultured human dermal fibroblasts.

collagen III = assay: Immunofluorescent staining of cultured human fibroblasts for dermal matrix proteins: collagen III; format: cell-based; conditions: immunofluorescent antibodies, compared to untreated controls
collagen I = assay: Immunofluorescent staining of cultured human fibroblasts for dermal matrix proteins: collagen I; format: cell-based; conditions: immunofluorescent antibodies, compared to untreated controls

Row | Substance | increase in elastin fibers (elastin fibers) [%] | increase in secretion of laminin (laminin) [%] | increase in secretion of fibronectin (fibronectin) [%] | increase in production of hyaluronic acid secretion (hyaluronic acid) [%] | increase in collagen III (collagen III) [%] | increase in collagen I (collagen I) [%]
1 | Tripeptide-1 | 15 | 85 | 105 | 118 | 105 | 305
2 | Tetradecyl aminobutyroylvalylamino butyric urea trifluoroacetate |  |  |  | 64.2 |  | 
